For the assay, the system named is Na^+,K^+-ATPase. The assay is described as follows: Na^+,K^+-ATPase inhibition rate (potassium ion concentration antagonist type), molybdate colorimetry. Format: biochemical. The conditions noted are these: 1 µM. How it is done: It is known that ouabain inhibits the enzyme activity of Na^+,K^+-ATPase. As such the Na^+,K^+-ATPase inhibitory activity of the various substances used as antigens in Example 4, Part B was examined to investigate the correlation between that inhibitory activity and reactivity with the monoclonal antibody of the present invention.
1.35 ml of TES buffer (80 mM TES, 200 mM NaCl, 9 mM MgSO4·7H2O and 10 mM EGTA adjusted to pH 7.4 with NaOH), 0.27 ml of 0.2% ODG (octyl-D-glucoside), 0.27 ml of 10^-5 M sample (10^-6 M during reaction), and 0.44 ml of distilled water were added to a plastic test tube which was then placed in an incubator at 25°C. 0.27 ml of 1 mM or 100 mM KCl and 50 µl of ATPase solution (stock solution, in which 5 units of […] (Sigma) were dissolved in 2 ml of 10 mM TES (pH 7.4) diluted 2.5 times with 10 mM TES (pH 7.4) as necessary) were added followed by incubation for 5 - 10 minutes at 25°C. Next, the reaction was started by addition of 50 µl of ATP solution (71 mg of ATP dissolved in 5 ml of 10 mM TES (pH 7.4) (Sigma)).
The reaction was allowed to proceed at 25°C for 30 minutes in the case of using 1 mM KCl (0.1 mM in the reaction solution), and for 10 minutes in the case of using 100 mM KCl (10 mM in the reaction solution). Next, 0.03 ml of 1% Triton™ X-100 solution (in distilled water) and 0.3 ml of 2.5% AmM solution (5 g of (NH4)6Mo7O24·4H2O dissolved in 6 N H2SO4 and brought to a volume of 200 ml) were mixed immediately prior to use (for a total of 0.33 ml) and then added to the reaction solution followed by incubation for 10 minutes at 25°C to stop the reaction and develop color. The absorbance of the reaction solution was then measured at 660 nm and the Na^+,K^+-ATPase inhibition rate (%) was calculated according to the following formula. Na^+ ,K^+ -ATPase Inhibition Rate (%) = [(Ao -Aw )/Ao ] × 100 [formula] Ao: Na^+,K^+-ATPase activity when sample not added Aw: Na^+,K^+-ATPase activity when sample added

Setting [1] is: 0.1 mM K^+ in the reaction solution, sample 10^-6 M during reaction, 30 minutes at 25°C.
Setting [2] is: 10 mM K^+ in the reaction solution, sample 10^-6 M during reaction, 10 minutes at 25°C.

SMILES strings stand for the structures.

Consider `C[C@H]1O[C@@H](O[C@H]2[C@@H](O)C[C@H](O[C@H]3[C@@H](O)C[C@H](O[C@H]4CC[C@@]5(C)[C@H](CC[C@@H]6[C@@H]5CC[C@]5(C)[C@@H](C7=CC(=O)OC7)CC[C@]65O)C4)O[C@@H]3C)O[C@@H]2C)C[C@H](O)[C@@H]1O` [Digitoxin], for which the “(Na^+,K^+-ATPase Inhibition) Rate (%) 0.1 mM K^+” value under setting [1] came out at 41%. For the same compound, the “(Na^+,K^+-ATPase Inhibition) Rate (%) 10 mM K^+” value under setting [2] is listed as 11%.

For the compound `C[C@H]1CCCC[C@H]1O` (relative stereo) [cis-2-Methylcyclohexanol], under setting [1], the “(Na^+,K^+-ATPase Inhibition) Rate (%) 0.1 mM K^+” value is listed as -2%. Under setting [2], the “(Na^+,K^+-ATPase Inhibition) Rate (%) 10 mM K^+” value is reported as 2%.

`C[C@]12CCC(=O)C=C1CC[C@@H]1[C@@H]2[C@@H](O)C[C@]2(C=O)[C@@H](C(=O)CO)CC[C@@H]12` [α-Aldosterone]: the “(Na^+,K^+-ATPase Inhibition) Rate (%) 0.1 mM K^+” value under setting [1] is 1%. The “(Na^+,K^+-ATPase Inhibition) Rate (%) 10 mM K^+” value under setting [2] was -11%.

As to `CCCCCCCCCCCCCCCCOC[C@@H](O)COP(=O)([O-])OCC[N+](C)(C)C` [LisoPAF, L-α-lysophosphatidylcholine-γ-O-hexadecyl], the “(Na^+,K^+-ATPase Inhibition) Rate (%) 0.1 mM K^+” value under setting [1] is listed as -2%. Also, under setting [2], the “(Na^+,K^+-ATPase Inhibition) Rate (%) 10 mM K^+” value is given as 0.4%.

`CCCCC/C=C\C/C=C\C/C=C\C/C=C\CCCC(=O)O` [Arachidonic acid]: the “(Na^+,K^+-ATPase Inhibition) Rate (%) 0.1 mM K^+” value under setting [1] is given as -5%. Moreover, the “(Na^+,K^+-ATPase Inhibition) Rate (%) 10 mM K^+” value under setting [2] is -2%.

Take `C[C@]12CC[C@H](O)C[C@@H]1CC[C@@H]1[C@@H]2CC[C@]2(C)[C@@H](C3=CC(=O)OC3)CC[C@]12O` [Uzarigenin]: the “(Na^+,K^+-ATPase Inhibition) Rate (%) 0.1 mM K^+” value came to 42% and the “(Na^+,K^+-ATPase Inhibition) Rate (%) 10 mM K^+” value is reported as 6%.

Take `CCCCC/C=C\C/C=C\CCCCCCCC(=O)O` [Linoleic acid]: under setting [1], the “(Na^+,K^+-ATPase Inhibition) Rate (%) 0.1 mM K^+” value is listed as -7%. Under setting [2], the “(Na^+,K^+-ATPase Inhibition) Rate (%) 10 mM K^+” value is listed as -5%.

`C1CC[C@H]2CCC[C@H]2C1` [cis-Hydrindane]: the “(Na^+,K^+-ATPase Inhibition) Rate (%) 0.1 mM K^+” value under setting [1] is listed as -1%. Under setting [2], the “(Na^+,K^+-ATPase Inhibition) Rate (%) 10 mM K^+” value was 0.5%.

Regarding `C[C@]12CCC(=O)C=C1CC[C@@H]1[C@@H]2[C@@H](O)C[C@@]2(C)[C@H]1CC[C@]2(O)C(=O)CO` [Hydrocortisone], the “(Na^+,K^+-ATPase Inhibition) Rate (%) 0.1 mM K^+” value under setting [1] is recorded as -3%. Moreover, the “(Na^+,K^+-ATPase Inhibition) Rate (%) 10 mM K^+” value under setting [2] is given as -1%.

`C[C@@H]1OC(O)[C@H](O)[C@H](O)[C@H]1O` (stereo partly drawn) [L-Rhamnose]: the “(Na^+,K^+-ATPase Inhibition) Rate (%) 0.1 mM K^+” value under setting [1] is on record as -2%. Further, the “(Na^+,K^+-ATPase Inhibition) Rate (%) 10 mM K^+” value under setting [2] is given as -4%.

Take `CC(=O)[C@H]1CC[C@H]2[C@@H]3CCC4=CC(=O)CC[C@]4(C)[C@H]3CC[C@]12C` [Progesterone]: the “(Na^+,K^+-ATPase Inhibition) Rate (%) 0.1 mM K^+” value under setting [1] was found to be 3%. Besides, under setting [2], the “(Na^+,K^+-ATPase Inhibition) Rate (%) 10 mM K^+” value was determined as 5%.

Regarding `CCCCCCCCCCCCCCCCOC[C@H](COP(=O)([O-])OCC[N+](C)(C)C)OC(C)=O` [PAF, L-d-phosphatidylcholine-β-aceyl-γ-O-hexadecyl], the “(Na^+,K^+-ATPase Inhibition) Rate (%) 0.1 mM K^+” value under setting [1] is listed as -3%. Besides, the “(Na^+,K^+-ATPase Inhibition) Rate (%) 10 mM K^+” value under setting [2] is listed as 1%.

Consider `C[C@]12C[C@@H](O)[C@H]3[C@@H](CC[C@]4(O)C[C@@H](O)C[C@@H](O)[C@]34CO)[C@@]1(O)CC[C@@H]2C1=CC(=O)OC1` [Ouabagenin], for which the “(Na^+,K^+-ATPase Inhibition) Rate (%) 0.1 mM K^+” value under setting [1] turned out to be 44%. Further, the “(Na^+,K^+-ATPase Inhibition) Rate (%) 10 mM K^+” value under setting [2] is 6%.

On to `C[C@H]1O[C@@H](O[C@H]2[C@@H](O)C[C@H](O[C@H]3[C@@H](O)C[C@H](O[C@H]4CC[C@@]5(C)[C@H](CC[C@@H]6[C@@H]5C[C@@H](O)[C@]5(C)[C@@H](C7=CC(=O)OC7)CC[C@]65O)C4)O[C@@H]3C)O[C@@H]2C)C[C@H](O)[C@@H]1O` [Digoxin], for which the “(Na^+,K^+-ATPase Inhibition) Rate (%) 0.1 mM K^+” value was determined as 45% and the “(Na^+,K^+-ATPase Inhibition) Rate (%) 10 mM K^+” value came out at 18%.

Consider `OC1CCCCC1` [Cyclohexanol], for which the “(Na^+,K^+-ATPase Inhibition) Rate (%) 0.1 mM K^+” value under setting [1] was -3%. For the same compound, the “(Na^+,K^+-ATPase Inhibition) Rate (%) 10 mM K^+” value under setting [2] came out at 0.4%.

As to `C[C@H](CCC(=O)O)[C@H]1CC[C@H]2[C@@H]3[C@H](O)C[C@@H]4C[C@H](O)CC[C@]4(C)[C@H]3C[C@H](O)[C@]12C` [Cholic acid], the “(Na^+,K^+-ATPase Inhibition) Rate (%) 0.1 mM K^+” value under setting [1] is 2%. Besides, the “(Na^+,K^+-ATPase Inhibition) Rate (%) 10 mM K^+” value under setting [2] is on record as -3%.

With `O=C1C=CCO1` [2(5H)-Furanone], under setting [1], the “(Na^+,K^+-ATPase Inhibition) Rate (%) 0.1 mM K^+” value amounted to 6%. In addition, the “(Na^+,K^+-ATPase Inhibition) Rate (%) 10 mM K^+” value under setting [2] was -5%.

Consider `C[C@]12C[C@H](O)[C@H]3[C@@H](CCC4=CC(=O)CC[C@@]43C)[C@@H]1CC[C@@H]2C(=O)CO` [Corticosterone], for which the “(Na^+,K^+-ATPase Inhibition) Rate (%) 0.1 mM K^+” value under setting [1] was -4%. The “(Na^+,K^+-ATPase Inhibition) Rate (%) 10 mM K^+” value under setting [2] stood at 1%.

In the case of `C[C@@H]1O[C@@H](O[C@H]2C[C@@H](O)[C@]3(CO)[C@H]4[C@H](O)C[C@]5(C)[C@@H](C6=CC(=O)OC6)CC[C@]5(O)[C@@H]4CC[C@]3(O)C2)[C@H](O)[C@H](O)[C@H]1O` [Ouabain], under setting [1], the “(Na^+,K^+-ATPase Inhibition) Rate (%) 0.1 mM K^+” value is reported as 41%. Besides, the “(Na^+,K^+-ATPase Inhibition) Rate (%) 10 mM K^+” value under setting [2] worked out at 18%.

Regarding `C[C@]12CC[C@H](O)C[C@H]1CC[C@@H]1[C@@H]2CC[C@]2(C)[C@@H](C3=CC(=O)OC3)CC[C@]12O` [Digitoxigenin], the “(Na^+,K^+-ATPase Inhibition) Rate (%) 0.1 mM K^+” value was 44% and the “(Na^+,K^+-ATPase Inhibition) Rate (%) 10 mM K^+” value was 17%.

Source of the values: patent EP0517918B1, “MONOCLONAL ANTIBODY AGAINST CARDIAC GLYCOSIDE AND UTILIZATION THEREOF” (SUNTORY LIMITED, priority 1990, dated 1992).
